{"source": "patent US10899795B2", "about": "“Modified epitopes for boosting CD4+ T-cell responses” (Katholieke Universiteit Leuven, priority 2012, dated 2021)", "test_system": "hemagglutinin-loaded dendritic cells", "assay_type": "cell-based, C57BL/6 mice", "data": [{"substance": "CLAI YSTVASSLV LLV [SEQ ID NO:9]", "values": [{"measurement": "lysis of hemagglutinin-loaded dendritic cells (51Cr release)", "result": "significant lysis"}]}]}
